Assay results taken from patent US20140018435A1, “Transdermal Delivery of Therapeutic Agents Using Poly (Amidoamine) Dendrimers” (UNIVERSITY OF ILLINOIS CHICAGO, priority 2012, published 2014).
Read-outs that look alike come from different tables or passages of the source.

How the values were obtained:
[1] = after 24 hours of co-treatment; cited from earlier work
[2] = Franz diffusion cell skin permeation/retention, porcine skin; assay type: in vitro ADME; details: detection limit 9 ng/mL
[3] = 24 hours dendrimer pre-treatment, then 5-FU in isopropyl myristate for 48 hrs; cited from earlier work
[4] = at pH 74; cited from earlier work
[5] = gel, cited from earlier work
[6] = tested on: breast cancer cell growth; details: tissue culture; cited from earlier work
[7] = tested on: ER positive invasive breast cancer; details: gel, 0.5 or 1 mg per breast per day; cited from earlier work
[8] = taken orally for five years; cited from earlier work

In the case of `O=C(O)c1cc(-c2ccc(F)cc2F)ccc1O` [Diflunisal], the “increase of accumulative permeated amount by complexing with PAMAM dendrimers, as compared to the free drug” value [1] is listed as 3.2 times.

In the case of `CC/C(=C(\c1ccc(O)cc1)c1ccc(OCCNC)cc1)c1ccccc1` [endoxifen], the “endoxifen collected from the receiver solution (RP-HPLC)” value [2] is reported as under 9 ng/mL.

In the case of `O=c1[nH]cc(F)c(=O)[nH]1` [5-FU, 5-fluorouracil], the “fold enhancement in permeability coefficient” value [3] is given as “Up to 4 fold”.

In the case of `CCCCCCCC/C=C\CCCCCCCC(=O)O` [OA, oleic acid], the reported partition coefficient [4] is given as 7.3.

For 4-hydroxytamoxifen [4-OHT], the “plasma level as fraction of those seen after 20 mg of oral TAM” value ([5]; 0.5 mg per breast per day) is given as “approximately 1/30”, the “plasma levels of 4-OHT” value ([5]; 0.5 mg per breast per day) is given as 0.05 ng/mL and the “plasma level as fraction of those seen after 20 mg of oral TAM” value ([5]; 1 mg per breast per day) is given as 1/12. The “plasma levels of 4-OHT” value ([5]; 1 mg per breast per day) was 0.13 ng/mL, the “potency in suppressing breast cancer cell growth relative to TAM” value [6] was “two-log greater potency” and the “reduction of Ki-67 labeling” value [7] was “reduced the Ki-67 labeling to a similar degree as oral TAM”.

In the case of `CC(C(=O)O)c1cccc(C(=O)c2ccccc2)c1` (stereo not drawn) [Ketoprofen], the “increase of accumulative permeated amount by complexing with PAMAM dendrimers, as compared to the free drug” value [1] is given as 3.4 times.

In the case of `CC/C(=C(\c1ccccc1)c1ccc(OCCN(C)C)cc1)c1ccccc1` [tamoxifen], the “reduction of breast cancer risk” value [8] is listed as “about 50%”.
